Laboratory results as given in PubChem BioAssay AID1963427 (Molecular Pharmacology Branch, DTP, NCI, 2024).
pIC50: −log10 of the molar value.

Tested on: 317291-083-R-J1-PDC complex spheroid growth
Test: Anticancer human tumor 317291-083-R-J1-PDC patient-derived soft tissue sarcoma cell line growth inhibition [Asc]
Conditions: for pIC50: curve of first compound; for viability, T/C: stronger effect = lower value; active means viability on the fitted dose curve at most 10% of control; inactive means the rest
Outline: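 Complex spheroids combining tumor cells with HUVEC endothelial cells and human MSCs, at 37 degrees C, 5% CO2; agents tested alone or combined, half-log dilutions from at or near clinical Cmax, or 10 microM if Cmax unknown.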
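Further: compound exposure lasted seven days after spheroids formed for three days.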
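Wherever viability, T/C is given: 100% = DMSO vehicle control wells.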

C#Cc1c(F)ccc2cc(O)cc(-c3ncc4c(N5CC6CCC(C5)N6)nc(OCC56CCCN5CC(F)C6)nc4c3F)c12 (centres undefined) + Cc1c(S(C)(=O)=O)c(-c2cc(F)cc(N3CCN(c4ccc(NS(=O)(=O)c5ccc(NC(CCN6CCC(C(=O)OCCCP(=O)(O)O)CC6)CSc6ccccc6)c(S(=O)(=O)C(F)(F)F)c5)cc4)CC3)c2)c(-c2ccc(Cl)cc2)n1C(C)C
inactive: viability, T/C (second compound 0.0316 µM, first compound 0.0316 µM) 105% | viability, T/C (second compound 0.0316 µM, first compound 0.1 µM) 89% | viability, T/C (second compound 0.0316 µM, first compound 0.316 µM) 102% | viability, T/C (second compound 0.0316 µM, first compound 1 µM) 84.6% | viability, T/C (second compound 0.0316 µM, first compound 3.16 µM) 96.7% | viability, T/C (second compound 0.0316 µM, first compound 10 µM) 68.8% | viability, T/C (second compound 0.1 µM, first compound 0.0316 µM) 86.5% | viability, T/C (second compound 0.1 µM, first compound 0.1 µM) 101% | viability, T/C (second compound 0.1 µM, first compound 0.316 µM) 92.1% | viability, T/C (second compound 0.1 µM, first compound 1 µM) 87.7% | viability, T/C (second compound 0.1 µM, first compound 3.16 µM) 96.7% | viability, T/C (second compound 0.1 µM, first compound 10 µM) 70.1% | viability, T/C (second compound 0.316 µM, first compound 0.0316 µM) 93.9% | viability, T/C (second compound 0.316 µM, first compound 0.1 µM) 87.3% | viability, T/C (second compound 0.316 µM, first compound 0.316 µM) 80.3% | viability, T/C (second compound 0.316 µM, first compound 1 µM) 78.9% | viability, T/C (second compound 0.316 µM, first compound 3.16 µM) 80.3% | viability, T/C (second compound 0.316 µM, first compound 10 µM) 62.5% | viability, T/C (second compound 1 µM, first compound 0.0316 µM) 90.7% | viability, T/C (second compound 1 µM, first compound 0.1 µM) 70.3% | viability, T/C (second compound 1 µM, first compound 0.316 µM) 83.4% | viability, T/C (second compound 1 µM, first compound 1 µM) 67.6% | viability, T/C (second compound 1 µM, first compound 3.16 µM) 74.9% | viability, T/C (second compound 1 µM, first compound 10 µM) 58.4% | viability, T/C (second compound 3.16 µM, first compound 0.0316 µM) 75.5% | viability, T/C (second compound 3.16 µM, first compound 0.1 µM) 67.1% | viability, T/C (second compound 3.16 µM, first compound 0.316 µM) 68.9% | viability, T/C (second compound 3.16 µM, first compound 1 µM) 71.7% | viability, T/C (second compound 3.16 µM, first compound 3.16 µM) 74.3% | viability, T/C (second compound 3.16 µM, first compound 10 µM) 53.2% | viability, T/C (second compound 10 µM, first compound 0.0316 µM) 79.9% | viability, T/C (second compound 10 µM, first compound 0.1 µM) 101% | viability, T/C (second compound 10 µM, first compound 0.316 µM) 89.2% | viability, T/C (second compound 10 µM, first compound 1 µM) 76.9% | viability, T/C (second compound 10 µM, first compound 3.16 µM) 80.5% | viability, T/C (second compound 10 µM, first compound 10 µM) 49.1%
< 5.00: pIC50 (second compound 0.0316 µM) | pIC50 (second compound 0.1 µM) | pIC50 (second compound 0.316 µM) | pIC50 (second compound 1 µM) | pIC50 (second compound 3.16 µM)
5.00: pIC50 (second compound 10 µM)

Cc1nc(N2CCC3(CC2)COC(C)C3N)c(CO)nc1Sc1ccnc(N)c1Cl (centres undefined) + Cc1c(S(C)(=O)=O)c(-c2cc(F)cc(N3CCN(c4ccc(NS(=O)(=O)c5ccc(NC(CCN6CCC(C(=O)OCCCP(=O)(O)O)CC6)CSc6ccccc6)c(S(=O)(=O)C(F)(F)F)c5)cc4)CC3)c2)c(-c2ccc(Cl)cc2)n1C(C)C
6.33: pIC50 (second compound 3.16 µM)
6.02: pIC50 (second compound 0.316 µM)
5.71: pIC50 (second compound 0.0316 µM)
6.22: pIC50 (second compound 1 µM)
5.60: pIC50 (second compound 0.1 µM)
inactive: viability, T/C (second compound 0.0316 µM, first compound 0.00949 µM) 96.4% | viability, T/C (second compound 0.0316 µM, first compound 0.03 µM) 77.5% | viability, T/C (second compound 0.0316 µM, first compound 0.0949 µM) 98.4% | viability, T/C (second compound 0.0316 µM, first compound 0.3 µM) 82.8% | viability, T/C (second compound 0.0316 µM, first compound 0.949 µM) 61.3% | viability, T/C (second compound 0.0316 µM, first compound 3 µM) 43.5% | viability, T/C (second compound 0.1 µM, first compound 0.00949 µM) 98.1% | viability, T/C (second compound 0.1 µM, first compound 0.03 µM) 92.1% | viability, T/C (second compound 0.1 µM, first compound 0.0949 µM) 81.9% | viability, T/C (second compound 0.1 µM, first compound 0.3 µM) 69.8% | viability, T/C (second compound 0.1 µM, first compound 0.949 µM) 51.3% | viability, T/C (second compound 0.1 µM, first compound 3 µM) 51% | viability, T/C (second compound 0.316 µM, first compound 0.00949 µM) 88.3% | viability, T/C (second compound 0.316 µM, first compound 0.03 µM) 91.3% | viability, T/C (second compound 0.316 µM, first compound 0.0949 µM) 74.4% | viability, T/C (second compound 0.316 µM, first compound 0.3 µM) 63.9% | viability, T/C (second compound 0.316 µM, first compound 0.949 µM) 52.2% | viability, T/C (second compound 0.316 µM, first compound 3 µM) 29.9% | viability, T/C (second compound 1 µM, first compound 0.00949 µM) 93.7% | viability, T/C (second compound 1 µM, first compound 0.03 µM) 73.2% | viability, T/C (second compound 1 µM, first compound 0.0949 µM) 68.8% | viability, T/C (second compound 1 µM, first compound 0.3 µM) 63.1% | viability, T/C (second compound 1 µM, first compound 0.949 µM) 39.2% | viability, T/C (second compound 1 µM, first compound 3 µM) 37.9% | viability, T/C (second compound 3.16 µM, first compound 0.00949 µM) 86.5% | viability, T/C (second compound 3.16 µM, first compound 0.03 µM) 69.8% | viability, T/C (second compound 3.16 µM, first compound 0.0949 µM) 66.2% | viability, T/C (second compound 3.16 µM, first compound 0.3 µM) 58.6% | viability, T/C (second compound 3.16 µM, first compound 0.949 µM) 42.2% | viability, T/C (second compound 3.16 µM, first compound 3 µM) 20.4% | viability, T/C (second compound 10 µM, first compound 0.00949 µM) 86.5% | viability, T/C (second compound 10 µM, first compound 0.03 µM) 87.3% | viability, T/C (second compound 10 µM, first compound 0.0949 µM) 81.7% | viability, T/C (second compound 10 µM, first compound 0.3 µM) 67.5% | viability, T/C (second compound 10 µM, first compound 0.949 µM) 52% | viability, T/C (second compound 10 µM, first compound 3 µM) 26.7%
6.00: pIC50 (second compound 10 µM)
